# Data: patent US5530095A, “Peptides of melanin concentrating hormone precursor” (The Salk Institute for Biological Studies, priority 1995, dated 1996)
# Bridge positions count the residues as written; N and C are the ends. Ends that are not written are not given here. Peptide text beside a SMILES is read from it.
# Assays:
# [1] = system: rabbit anti-salmon MCH antibody (Antibody PBL #171); assay: Radioimmunoassay based on rabbit anti-salmon MCH antibody PBL #171 with 125I-salmon MCH tracer; type: binding; conditions: for cross-reactivity in the salmon MCH radioimmunoassay: Antibody PBL #171
# Method: Salmon MCH, having the formula [drawing 7] is synthesized and purified as described in Example I. It is then conjugated to human alpha-globulins (U.S. Biochemicals, Frac IV) via glutaraldehyde by a reaction well known in the art. The salmon MCH-human alpha-globulins conjugate is diluted with physiological saline (0.9%s/v) to a final concentration of 1 mg total protein per milliliter Freund's Complete Adjuvant Modified M. butyricum (Calbiochem) is emulsified with an equal volume of saline containing either 1 mg conjugate/ml (for initial injections) or 0.5 mg conjugate/ml (for boosters). For each immunization, the rabbits receive a total of 1 ml emulsion in 20-30 intradermal sites; they are injected every 2 weeks and bled through an ear vein 7 days after each booster. Blood is allowed to clot, and serum is separated from cells by centrifugation. The antiserum from each bleeding is characterized with respect to titer and affinity. Some of this antiserum is labelled PBL #171.
# Salmon MCH (1 μg) is radiolabelled using 1 mCurie Na^125 I (New England Nuclear, NEZ 033L) and 1 μg Chloramine T in a total volume of 40 μl of 1.25M sodium phosphate buffer, pH 7.5. Reaction is allowed to proceed for 30-45 seconds and then immediately quenched by the addition of 10 mg bovine serum albumin (BSA). ^125 I-salmon MCH is then purified by adsorption and elution from a BondElut C18 cartridge (Analytichem International). The eluant from the C18 cartridge is reduced to about 200 μl using a Savant Speed-Vac and then further purified by HPLC using a Vydac C18 column, 0.46×25 cm, 5 μm, 300 Å pore size. Buffer A is 0.1% trifluoroacetic acid (TFA); buffer B is 60% acetonitrile in 0.1% TFA. ^125 I-salmon MCH is loaded at 35% B at a flow rate of 1.5 ml/min, and a gradient is then run to 70% B in 40 minutes. Peak tubes of radioactivity are made 0.5% final in BSA. Several peaks of radioactivity are reproducibly eluted, and the first major zone of radioactivity is routinely used for the radioimmunoassay.
# Throughout the purification, fractions are monitored using an RIA based upon this rabbit anti-salmon MCH antibody. Aliquots for assay are transferred into glass tubes containing BSA (10 μl of 10 mg/ml) and dried in a Savant Speed Vac. Fractions are resuspended in RIA assay buffer and pH checked and adjusted if necessary with NaOH. The radioimmunoassay is carried out using chilled reagents and with tubes partially immersed in ice water. On day one, 100 μl of buffer with Antibody PBL #171 1/24,000 dilution (1/120,000 final dilution) is added to glass tubes containing standard or test samples or buffer only in a volume of 300 μl. All treatments are tested in duplicate. Buffer is 0.1M sodium chloride, 0.05M sodium phosphate, 0.025M ethylenediaminetetraacetic acid (EDTA), 0.1% sodium azide, pH 7.5 (SPEA buffer) with 0.1% BSA. Standards ranging from 0.5 to 2000 pg of synthetic salmon MCH are used. Samples are tested at 2-5 dose levels. After these additions, tubes are vortexed and incubated at 4 ° C. for 24 hours. On day two, 20,000 cpm of ^125 -salmon MCH with 0.5% normal rabbit serum diluted in SPEA buffer +0.1% BSA is added in a volume of 100 μl to all tubes. The tubes are vortexed and returned to the cold for approximately 24 hours. On day three, tracer bound to antibody is precipitated with sheep anti-rabbit gamma globulins (100 μl, 1/40 dilution) and 0.5 ml of 10% (w/v) polyethylene glycol (SIGMA, MW=6,000 to 8,000). Tubes are vortexed and incubated 15 to 30 minutes at room temperature. Tubes are washed with 1 ml of SPEA buffer and centrifuged at 4° C. for 30-45 minutes at 2000× g. Supernatants are decanted, and pellets are counted in a gamma counter. Results are calculated using a standard logit/log radioimmunoassay data processing program NICHD RRB, NIH.
# [2] = Biological potency in mammalian assays
# [3] = system: rat pituitary halves (secretion of ACTH); assay: In vitro assay using rat pituitary halves to monitor secretion of ACTH; type: cell-based
# Method: In vitro assays are performed with the mammalian MCH and the synthetic salmon MCH peptides, using rat pituitary halves to monitor for the secretion of ACTH. Assays of this type are described in more detail in Proc. Natl. Acad. Sci., 85, 5556-5560 (1988). […] As a result, it is believed that mammalian MCH should be useful as a natural, peptide regulator of the pituitary-adrenal axis. It is likewise believed that mammalian MCH peptides will be useful for clinical application in the treatment of pigment disorders as well as in the diagnosis and therapy of melanoma. It is also believed that they will be effective in the treatment of certain forms of dementia and may have uses in connection with nerve damage situations.
# fish melanophores = conditions: cited from earlier work
# [4] = system: melanosomes in amphibians; conditions: cited from earlier work
# [5] = system: antibodies against human GRF; assay: Cross-reaction with antibodies against human GRF; type: binding; conditions: suggested by homology of human GRF 30-37 with NGE 12-19
# Source text: The sequences of the NGE's correspond to the sequences of amino acids 110-128 of the MCH precursors (see Tables 1 and 2, below). […] It is thought that NGE's, like NEI, have a biological function in vivo.
Compound,cross-reactivity in the salmon MCH radioimmunoassay [1],also measured
NC(=O)CC[C@@H]1NC(=O)[C@H](Cc2ccccc2)NC(=O)[C@H](Cc2ccc(O)cc2)NC(=O)[C@@H](N)CSSC[C@@H](C(=O)N2CCC[C@H]2C(=O)N[C@@H](CCCN=C(N)N)C(=O)NCC(N)=O)NC(=O)[C@H](CC(N)=O)NC1=O [arginine vasopressin],no cross-reactivity,–
CSCC[C@@H]1NC(=O)[C@@H](NC(=O)[C@H](CCCNC(=N)N)NC(=O)[C@H](CC(C)C)NC(=O)[C@H](CCSC)NC(=O)[C@H](CC(=O)O)NC(=O)[C@H](Cc2ccccc2)NC(=O)[C@@H](N)CC(=O)O)CSSC[C@@H](C(=O)N[C@@H](Cc2c[nH]c3ccccc23)C(=O)N[C@@H](CCC(N)=O)C(=O)N[C@H](C(=O)O)C(C)C)NC(=O)[C@@H]2CCCN2C(=O)[C@H](CCCNC(=N)N)NC(=O)[C@H](Cc2ccc(O)cc2)NC(=O)[C@H](C(C)C)NC(=O)[C@H](CCCNC(=N)N)NC(=O)CNC(=O)[C@H](CC(C)C)NC1=O [mammalian MCH],–,biological potency in mammalian assays [2]: more potent reaction than the alpha-MSH and beta-MSH antagonists; displacement in radioimmunoassays ([1]; radioimmunoassays also run with synthetic salmon MCH): shows displacement; modulation of ACTH secretion/production [3]: very potent modulators of ACTH production
CC[C@H](C)[C@@H]1NC(=O)[C@H](Cc2ccc(O)cc2)NC(=O)[C@@H](N)CSSC[C@@H](C(=O)N2CCC[C@H]2C(=O)N[C@@H](CC(C)C)C(=O)NCC(N)=O)NC(=O)[C@H](CC(N)=O)NC(=O)[C@H](CCC(N)=O)NC1=O [oxytocin],no cross-reactivity,–
CSCC[C@@H]1NC(=O)[C@@H](NC(=O)[C@H](CCCNC(=N)N)NC(=O)[C@H](CCSC)NC(=O)[C@@H](NC(=O)[C@@H](N)CC(=O)O)[C@@H](C)O)CSSC[C@@H](C(=O)N[C@@H](Cc2c[nH]c3ccccc23)C(=O)N[C@@H](CCC(=O)O)C(=O)N[C@H](C(=O)O)C(C)C)NC(=O)[C@@H]2CCCN2C(=O)[C@H](CCCNC(=N)N)NC(=O)[C@H](Cc2ccc(O)cc2)NC(=O)[C@H](C(C)C)NC(=O)[C@H](CCCNC(=N)N)NC(=O)CNC(=O)[C@H](C(C)C)NC1=O [salmon MCH] (H-DTMRCMVGRVYRPCWEV-OH; disulfide 5-14),–,"biological potency in mammalian assays [2]: extremely little biological potency; EC50 in the radioimmunoassay ([1]; Antibody PBL #171 1/120,000 final dilution, 125I-salmon MCH tracer, n=10): 18.5 ± 3.2 pg; modulation of ACTH secretion/production [3]: substantially no effect on the secretion of ACTH; melanosome aggregation (fish melanophores): induces melanosome aggregation; effect on melanosomes in amphibians [4]: causing dispersal of melanosomes"
Gly-XNGE -Phe-Pro-Ala-Glu-Asn-Gly-Val-Gln-Asn-Thr-Glu-Ser-Thr-Gln-Glu,–,cross-reaction of anti-GRF antibodies [5]: cross-react
"GnRH: GnRH peptide hormone (QHWSYGLRPG; ends and bridges not checked; UniProt P01148 24-33, looked up)",no cross-reactivity,–
"SS-14: SS-14 peptide tested for RIA cross-reactivity (AGCKNFFWKTFTSC; ends and bridges not checked; cysteine pairing not given here; UniProt P61278 103-116, looked up)",no cross-reactivity,–
"SS-28: SS-28 peptide tested for RIA cross-reactivity (SANSNPAMAPRERKAGCKNFFWKTFTSC; ends and bridges not checked; cysteine pairing not given here; UniProt P61278 89-116, looked up)",no cross-reactivity,–
"human GRF(1-40)-OH: human growth hormone releasing factor (1-40), free acid (YADAIFTNSYRKVLGQLSARKLLQDIMSRQQGESNQERGA-OH; UniProt P01286 32-71, looked up, fragment)",no cross-reactivity,–
"rat ACTH: rat ACTH peptide hormone (SYSMEHFRWGKPVGKKRRPVKVYPNVAENESAEAFPLEF; Corticotropin; UniProt P01194 124-162, looked up)",no cross-reactivity,–
"rat CRF: rat corticotropin-releasing factor (SEEPPISLDLTFHLLREVLEMARAEQLAQQAHSNRKLMEII; ends and bridges not checked; UniProt P01143 145-185, looked up)",no cross-reactivity,–
"rat GRF: rat growth hormone releasing factor (HADAIFTSSYRRILGQLYARKLLHEIMNRQQGERNQEQRSRFN; Somatoliberin; UniProt P09916 31-73, looked up)",no cross-reactivity,–
β-MSH,no cross-reactivity,–
"β-endorphin (YGGFMTSEKSQTPLVTLFKNAIIKNAYKKGE; Beta-endorphin; UniProt P01189 237-267, looked up)",no cross-reactivity,–
